{"source": "patent US8802416B2", "about": "“Thermostable organic solvent tolerant protease from gram-positive bacteria” (Universiti Putra Malaysia, priority 2009, dated 2014)", "key": {"[1]": {"tested_on": "Rand protease", "assay": "Effect of inhibitors on protease activity", "assay_type": "biochemical, Bacillus subtilis isolate Rand", "conditions": "5 mM inhibitor, 30 min at 37° C., relative to control", "protocol": "Purified Rand protease was incubated with 5 mM of different inhibitors at 37° C. for 30 min.\nAll the inhibitors were used at 5 mM final concentration."}, "[2]": {"tested_on": "Rand protease", "assay": "Effect of metal ions on protease activity", "assay_type": "biochemical, Bacillus subtilis isolate Rand", "conditions": "5 mM metal ion, 37° C., 30 min; control no ions", "protocol": "Purified Rand protease was treated with 5 mM of various metal ions at 37° C. for […].\nThe effect of metal ions on protease activity was determined by incubating the protease with different metal ions at 5 mM final concentration. The metal ions used were K^+, Na^+, Mg^2+, Ca^2+, Mg^2+, Fe^2+, Co^2+, Cu^2+, Zn^2+ and […]. The samples were incubated at 37° C. for 30 min. […] The control contained no ions."}, "[3]": {"tested_on": "thermophilic Bacillus strain HS08 protease", "conditions": "cited from earlier work"}, "[4]": {"tested_on": "Bacillus sp. TKU004 protease", "conditions": "zinc ions; cited from earlier work"}, "[5]": {"tested_on": "protease activity of B. megaterium", "conditions": "presence of Zn2+; cited from earlier work"}, "[6]": {"tested_on": "Rand protease", "assay": "Effect of organic solvents on purified Rand protease activity", "assay_type": "biochemical, Bacillus subtilis isolate Rand", "conditions": "25% (v/v) solvent, 37° C., 150 rpm, 30 min, no solvent = 100%", "protocol": ". Three ml of purified Rand protease were incubated with 1 ml of different organic solvents at 37° C. with shaking at 150 rpm for 30 min. The activity of the enzyme without any solvent (none) was taken as 100%.\nThe effects of organic solvents with various log P on protease activity were determined. […] . The control was done in the absent of organic solvent and assay under the same experimental conditions. The protease was incubated in the presence of 25% (v/v) of organic solvents for 30 min. The incubation was performed at 37° C. in water bath shaker with 150 rpm. The samples were removed and immediately vortex prior to assay the protease activity."}, "[7]": {"conditions": "cited from earlier work"}, "[8]": {"tested_on": "Rand protease", "assay": "Effect of organic solvents on stability of crude Rand protease (cell-free supernatant)", "assay_type": "biochemical, Bacillus subtilis isolate Rand", "conditions": "25% (v/v) solvent, 55° C., 150 rpm, 30 min, control distilled water", "protocol": "1. […] Three ml aliquots of a cell-free supernatant culture were incubated with 1 ml of different organic solvents at 55° C. with shaking at 150 rpm for 30 min.\nEach sample was run in triplicate.\nIsolate Rand was cultured aerobically at 50° C. for 24 h in the absence of organic solvents. The culture medium was then centrifuged at 12,000×g and 4° C. for 10 min. The supernatant was filtered with a cellulose acetate membrane filter (pore size 0.22 μm). One mL organic solvent was added to 3.0 mL of the cell-free supernatant and the whole mixture was incubated in shaker 150 rpm at 55° C. for 30 min. The samples were removed and immediately vortex prior to assay at zero time and after incubation period. For control the solvent was replaced by distilled water."}}, "note": "Square brackets hold non-standard residues; d marks the D form. Peptide text beside a SMILES is read from it. * marks the point of attachment. Sta = CC(C)C[C@H](N)[C@@H](O)CC(=O)O; Isovaleryl = CC(C)CC(=O)*"}
{"smiles": "O[C@@H](CS)[C@@H](O)CS", "note": "(racemic) [DTT, 1,4-Dithio-DL-threitol]", "values": [{"measurement": "reduction (inhibition) of protease activity", "setting": "[1]", "value": 30, "unit": "%"}]}
{"smiles": "OCCS", "note": "[2-mercaptoethanol, 2-Mercaptoethanol]", "values": [{"measurement": "reduction (inhibition) of protease activity", "setting": "[1]", "value": "About 90%"}]}
{"smiles": "CC(C)C[C@H](NC(=O)[C@@H](O)[C@H](N)Cc1ccccc1)C(=O)O", "note": "[Bestatin, bestatin]", "values": [{"measurement": "protease activity retained", "setting": "[1]", "value": "about 95%"}]}
{"smiles": "[Ca+2]", "note": "[Ca^2+]", "values": [{"measurement": "protease activity in the presence of metal ion", "setting": "[2]", "value": "around 89%"}, {"measurement": "influence on proteolytic activity", "setting": "[3]; Ca2+ ions", "value": "did not show any influence"}]}
{"smiles": "[Co+2]", "note": "[Co^2+]", "values": [{"measurement": "protease activity in the presence of metal ion", "setting": "[2]", "value": "inhibitory effects"}]}
{"smiles": "[Cu+2]", "note": "[Cu^2+]", "values": [{"measurement": "protease activity in the presence of metal ion", "setting": "[2]", "value": "inhibitory effects"}]}
{"smiles": "[Fe+2]", "note": "[Fe^2+]", "values": [{"measurement": "protease activity in the presence of metal ion", "setting": "[2]", "value": "inhibitory effects"}]}
{"smiles": "[K+]", "note": "[K^+]", "values": [{"measurement": "protease activity in the presence of metal ion", "setting": "[2]", "value": "~112", "unit": "%"}]}
{"smiles": "[Mg+2]", "note": "[Mg^2+]", "values": [{"measurement": "protease activity in the presence of metal ion", "setting": "[2]", "value": "inhibitory effects"}]}
{"smiles": "[Ni+2]", "note": "[Ni^2+]", "values": [{"measurement": "protease activity in the presence of metal ion", "setting": "[2]", "value": "inhibitory effects"}]}
{"smiles": "O=S(=O)(F)Cc1ccccc1", "note": "[PMSF, phenylmethanesulfonyl fluoride]", "values": [{"measurement": "reduction (inhibition) of protease activity", "setting": "[1]", "value": "completely inhibited"}]}
{"smiles": "CC(C)CC(=O)N[C@H](C(=O)N[C@H](C(=O)N[C@@H](CC(C)C)[C@@H](O)CC(=O)N[C@@H](C)C(=O)N[C@@H](CC(C)C)[C@@H](O)CC(=O)O)C(C)C)C(C)C", "note": "[Pepstatin A, pepstatin A] (Isovaleryl-VV[Sta]A[Sta]-OH)", "values": [{"measurement": "protease activity retained", "setting": "[1]", "value": "~63", "unit": "%"}]}
{"smiles": "[Zn+2]", "note": "[Zn^2+]", "values": [{"measurement": "activity of the apo-enzyme restored, of the original level", "setting": "[4]", "value": 75, "unit": "%"}, {"measurement": "relative activity", "setting": "[3]; 2 mM Zn2+", "value": 109, "unit": "%"}, {"measurement": "relative activities", "setting": "[5]", "value": 28, "unit": "%"}]}
{"smiles": "ClC(Cl)Cl", "note": "[chloroform]", "values": [{"measurement": "relative activity remaining in organic solvent", "setting": "[6]", "value": 18, "unit": "%"}]}
{"smiles": "CCCCCCCCCCCC", "note": "[n-dodecane]", "values": [{"measurement": "log P", "setting": "[7]", "value": 6.0}]}
{"smiles": "CCCCCCCCCCCCCC", "note": "[n-tetradecane]", "values": [{"measurement": "log P", "setting": "[7]", "value": 7.6}]}
{"smiles": "c1ccncc1", "note": "[pyridine]", "values": [{"measurement": "remaining activity of Rand protease in the presence of organic solvent", "setting": "[8]", "value": "no activity was observed"}]}
{"smiles": "Cc1ccccc1", "note": "[toluene]", "values": [{"measurement": "remaining activity of Rand protease in the presence of organic solvent", "setting": "[8]", "value": 130, "unit": "%"}, {"measurement": "remaining activity of Rand protease in the presence of organic solvent", "setting": "[8]; listed as toluen", "value": "enhanced"}]}
